PMC5428777, “Molecular Characteristics and Serodiagnostic Potential of Dihydrofolate Reductase from Echinococcus granulosus” (Scientific Reports, 2017)
Where two headings read alike, the source gives them in different places.

Tests used:
[1] = molecular target: T1, rEg-DHFR (Echinococcus granulosus, UniProt U6JJS2); experiment: Inhibition of rEg-DHFR enzyme activity by antifolates (DHFR assay kit, absorbance 340 nm); type: biochemical
T1 sequence (U6JJS2 1-191): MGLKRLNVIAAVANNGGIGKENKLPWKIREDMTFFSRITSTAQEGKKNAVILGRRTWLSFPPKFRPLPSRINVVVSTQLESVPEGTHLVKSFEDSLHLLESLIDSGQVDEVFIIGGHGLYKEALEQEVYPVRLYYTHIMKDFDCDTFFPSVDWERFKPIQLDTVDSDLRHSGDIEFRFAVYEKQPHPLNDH
Description: The temperature was controlled at 22 °C.
The IC50 was calculated using GraphPad Prism software by nonlinear curve-fitting.

[2] = system: E. granulosus protoscoleces (PSCs); experiment: microbe, parasite or virus in culture; type: cell-based, Echinococcus granulosus; settings: for effect on PSCs (protoscolex viability): all three concentrations tested
Description: Cysts of E. granulosus were obtained from a slaughterhouse in Qinghai Province, China. The PSCs were separated in sterile conditions and washed three times in phosphate-buffered saline (PBS). Rinsed PSCs were diluted to a concentration of 1,500 mL^−1 and maintained as previously described, [47]. Briefly, PSCs were cultured in RPMI 1640 medium (Hyclone) with 10% fetal bovine serum (Hyclone), 10% hydatid fluid, 100 U.mL^−1 penicillin G and 100 μg.mL^−1 streptomycin (Sigma, USA). Adult worms were collected from the small intestine of a 2-month-old dog 35 days post-infection with 20,000 PSCs. A 5-month-old dog and two 9-week-old female New Zealand white rabbits were obtained from the Laboratory Animal Center of Sichuan Agricultural University. All animals were provided with food pellets and sterilised water ad libitum.
[…]. PSCs incubated with only assay buffer (DHFR assay kit; Sigma) or DMSO were used as negative controls. The vitality of protoscoleces was assessed using a Trypan Blue exclusion test[50], [51]. The daily percentages of PSCs vitality were calculated on six microscopic fields covering approximately 10–20 PSCs. The effect of per drug concentration was monitored in triplicate and in two separate trials.

[3] = molecular target: T1, rEg-DHFR; experiment: Enzyme kinetics of rEg-DHFR towards substrate DHF (Michaelis-Menten fit); type: biochemical; settings: 0-120 μM DHF, 60 μM NADPH, 22 °C
Description: The enzymatic characteristics of rEg-DHFR and human DHFR enzyme (DHFR assay kit; Sigma) were analysed using a DHFR assay kit (Sigma) following the manufacturer’s instructions[41]. Briefly, a range of purified rEg-DHFR concentrations was added to the assay buffer and mixed well and the optimal concentration was determined. Reaction progress was measured based on the decrease in absorbance at 340 nm. Data was recorded at 25 s intervals for 2.5 min. The temperature was controlled at 22 °C. […] Kinetic parameters (Vmax and Km) were calculated using GraphPad Prism® software (San Diego, CA, USA; http://www.graphpad.com) based on a Michaelis-Menten curve fit.

[4] = system: E. granulosus protoscoleces (PSCs); design: method as in PMID 11133110; settings: positive control; ref [30]; cited from earlier work
[5] = substrate: Nc1nc2c(c(=O)[nH]1)N=C(CNc1ccc(C(=O)N[C@@H](CCC(=O)O)C(=O)O)cc1)CN2; experiment: purified protein, by the assay type; settings: other: 0-120 μM DHF, 60 μM NADPH, 22 °C
[6] = 50 μM dihydrofolic acid, 60 μM NADPH, mean ± SD, read-out: IC50 for rEg-DHFR

Q: With Nc1nc(N)c2nc(CNc3ccc(C(=O)N[C@@H](CCC(=O)O)C(=O)O)cc3)cnc2n1 [Aminopterin, aminopterin] as the molecule, how does the IC50 [1] read?
A: 63.7 ± 6.76 nM

Q: What about the “effect on PSCs (protoscolex viability)” value ([2]; after 7 days of incubation) of the same molecule?
A: slight effect

Q: For Nc1nc2c(c(=O)[nH]1)N=C(CNc1ccc(C(=O)N[C@@H](CCC(=O)O)C(=O)O)cc1)CN2 [DHF, 7,8-dihydrofolate], which “Vmax of rEg-DHFR for substrate DHF” value [3] is on record?
A: 2.384 ± 0.01874 µmol/min/mg

Q: With CN(Cc1cnc2nc(N)nc(N)c2n1)c1ccc(C(=O)N[C@@H](CCC(=O)O)C(=O)O)cc1 [Methotrexate, methotrexate] as the molecule, how does the “effect on PSCs (protoscolex viability)” value ([2]; after 7 days of incubation) read?
A: slight effect

Q: With O=C(C1CCCCC1)N1CC(=O)N2CCc3ccccc3C2C1 (stereo not drawn) [Praziquantel] as the molecule, how does the protoscolicidal activity [4] read?
A: exhibit protoscolicidal activity

Q: For CCc1nc(N)nc(N)c1-c1ccc(Cl)cc1 [Pyrimethamine, pyrimethamine], which IC50 [1, 6] is on record?
A: 860 ± 93.5 nM

Q: And the “percentage vitality of PSCs” value ([2]; 800 μM, after 7 days of incubation, control 82.65 ± 6.11%)?
A: 20.67 ± 2.49%

Q: For COc1cc(Cc2cnc(N)nc2N)cc(OC)c1OC [Trimethoprim, trimethoprim], which IC50 [1, 6] is on record?
A: 30800 ± 2090 nM

Q: What about the viability at 3000 µM ([2]; Echinococcus granulosus, 168 h, read-out: PSCs remaining viable in culture) of the same molecule?
A: 38.7 ± 6.18%

B1: rEg-DHFR (Echinococcus granulosus) (protein)
chain: MGLKRLNVIAAVANNGGIGKENKLPWKIREDMTFFSRITSTAQEGKKNAVILGRRTWLSFPPKFRPLPSRINVVVSTQLESVPEGTHLVKSFEDSLHLLESLIDSGQVDEVFIIGGHGLYKEALEQEVYPVRLYYTHIMKDFDCDTFFPSVDWERFKPIQLDTVDSDLRHSGDIEFRFAVYEKQPHPLNDH
Q: For B1, which Km [5] is on record?
A: 18.74 ± 0.5651 µM

B2: human DHFR (Homo sapiens) (protein)
chain: MVGSLNCIVAVSQNMGIGKNGDLPWPPLRNEFRYFQRMTTTSSVEGKQNLVIMGKKTWFSIPEKNRPLKGRINLVLSRELKEPPQGAHFLSRSLDDALKLTEQPELANKVDMVWIVGGSSVYKEAMNHPGHLKLFVTRIMQDFESDTFFPEIDLEKYKLLPEYPGVLSDVQEEKGIKYKFEVYEKND
Q: What does the source list for B2?
A: Km [5]: 14.61 ± 0.6590 µM; Vmax [5]: 3.370 ± 0.02327 µmol/min/mg
